Data reported in ChEMBL document CHEMBL1201862, “PubChem BioAssay data set” (2004).
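Assay format: 96-well plates, 48-hour exposure. GI50 = concentration required for 50% inhibition of growth.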 Active and inactive are the calls of the source. Rule as the data show it: active = GI50 up to about 1.1 µM and inactive = higher.

What was measured:
Assay in all cases: NCI tumour cell line growth inhibition, 48 h
IGROV-1 = tested on: IGROV-1
CAKI-1 = tested on: CAKI-1
OVCAR-3 = tested on: OVCAR-3
ACHN = tested on: ACHN
HCT-116 = tested on: HCT-116
DU-145 = tested on: DU-145
OVCAR-4 = tested on: OVCAR-4
PC-3 = tested on: PC-3
UACC-257 = tested on: UACC-257
HL-60 = tested on: HL-60
SR = tested on: SR
NCI-H23 = tested on: NCI-H23
NCI/ADR-RES = tested on: NCI/ADR-RES
SNB-19 = tested on: SNB-19
COLO 205 = tested on: COLO 205
MDA-MB-435 = tested on: MDA-MB-435
U-251 = tested on: U-251
OVCAR-8 = tested on: OVCAR-8
NCI-H522 = tested on: NCI-H522

Measured: GI50

CC1(C)N=C(/C(C#N)=[N+](/[O-])C(=O)c2ccccc2)C(C)(C)N1O
inactive: IGROV-1 > 100 µM | CAKI-1 > 100 µM | OVCAR-3 > 100 µM | ACHN > 100 µM | HCT-116 > 100 µM | DU-145 > 100 µM | OVCAR-4 > 100 µM | PC-3 > 100 µM | UACC-257 > 100 µM | HL-60 > 100 µM | SR > 100 µM | NCI-H23 > 100 µM | NCI/ADR-RES > 100 µM | SNB-19 > 100 µM | COLO 205 > 100 µM | MDA-MB-435 > 100 µM | U-251 > 100 µM | OVCAR-8 > 100 µM

O=C1CC(c2cccc(Cl)c2)Oc2ccccc21 (stereo not drawn)
inactive: IGROV-1 15 µM | CAKI-1 6.18 µM | ACHN 16.2 µM | HCT-116 15.9 µM | DU-145 17.7 µM | OVCAR-4 22.4 µM | PC-3 15.7 µM | UACC-257 16.9 µM | HL-60 11.1 µM | NCI-H23 10.2 µM | NCI/ADR-RES 26.2 µM | SNB-19 15.3 µM | COLO 205 23.7 µM | MDA-MB-435 17.4 µM | U-251 25.5 µM | OVCAR-8 29.2 µM

C[C@@H](C1CC[C@H]2[C@@H]3[C@@H]4O[C@@H]4[C@@]4(O)CC=CC(=O)[C@]4(C)[C@H]3C[C@H](O)[C@]12C)[C@H]1C[C@]2(C)O[C@]2(C)C(=O)O1 (stereo partly drawn)
inactive: IGROV-1 > 100 µM | NCI-H522 > 100 µM | CAKI-1 > 100 µM | OVCAR-3 > 100 µM | ACHN > 100 µM | HCT-116 > 100 µM | DU-145 > 100 µM | OVCAR-4 > 100 µM | PC-3 > 100 µM | UACC-257 > 100 µM | HL-60 > 100 µM | NCI-H23 > 100 µM | NCI/ADR-RES > 100 µM | SNB-19 > 100 µM | COLO 205 > 100 µM | MDA-MB-435 > 100 µM | U-251 > 100 µM | OVCAR-8 > 100 µM

Cc1[nH]c(=O)nc(NCCNCCO)c1C(=O)Nc1c2ccccc2nc2ccccc12
inactive: IGROV-1 > 100 µM | NCI-H522 > 100 µM | CAKI-1 > 100 µM | OVCAR-3 > 100 µM | ACHN > 100 µM | HCT-116 > 100 µM | DU-145 > 100 µM | OVCAR-4 > 100 µM | PC-3 > 100 µM | UACC-257 > 100 µM | HL-60 > 100 µM | NCI-H23 > 100 µM | NCI/ADR-RES > 100 µM | SNB-19 > 100 µM | COLO 205 > 100 µM | MDA-MB-435 > 100 µM | U-251 > 100 µM | OVCAR-8 > 100 µM

NC1=NC(c2ccccc2)CC(c2cc(Cl)ccc2O)=N1 (stereo not drawn)
inactive: IGROV-1 19.3 µM | NCI-H522 15.5 µM | CAKI-1 14.9 µM | OVCAR-3 17.5 µM | ACHN 15.3 µM | HCT-116 14 µM | OVCAR-4 17.9 µM | UACC-257 19.9 µM | HL-60 16.1 µM | SR 15.8 µM | NCI-H23 15.5 µM | SNB-19 16.7 µM | COLO 205 19.5 µM | U-251 16.3 µM | OVCAR-8 16.2 µM

Cc1ccc(C2=Nc3ccccc3NC(=O)C2)cc1
inactive: IGROV-1 > 100 µM | NCI-H522 98.4 µM | CAKI-1 > 100 µM | OVCAR-3 > 100 µM | ACHN > 100 µM | HCT-116 > 100 µM | OVCAR-4 > 100 µM | UACC-257 > 100 µM | HL-60 51.2 µM | SR > 100 µM | NCI-H23 > 100 µM | SNB-19 > 100 µM | COLO 205 > 100 µM | U-251 32.2 µM | OVCAR-8 79.8 µM

CCOC(=O)[C@H](Cc1ccccc1)NC(=O)c1nc[nH]c1[N+](=O)[O-]
inactive: IGROV-1 > 100 µM | NCI-H522 > 100 µM | CAKI-1 > 100 µM | OVCAR-3 > 100 µM | ACHN > 100 µM | HCT-116 > 100 µM | OVCAR-4 > 100 µM | UACC-257 > 100 µM | HL-60 > 100 µM | SR > 100 µM | NCI-H23 > 100 µM | SNB-19 > 100 µM | COLO 205 > 100 µM | U-251 > 100 µM | OVCAR-8 > 100 µM

CCC1=CCN(c2cc(C)ccn2)OC1c1ccccc1 (stereo not drawn)
inactive: IGROV-1 67.8 µM | NCI-H522 18.5 µM | CAKI-1 66.1 µM | OVCAR-3 65.6 µM | ACHN 45.5 µM | HCT-116 30.8 µM | OVCAR-4 59.8 µM | UACC-257 33.3 µM | HL-60 18.3 µM | SR 21.1 µM | NCI-H23 25.4 µM | SNB-19 81.3 µM | COLO 205 40.6 µM | U-251 22.8 µM | OVCAR-8 53.1 µM

NC(=O)COc1ccccc1
inactive: IGROV-1 > 100 µM | NCI-H522 > 100 µM | CAKI-1 > 100 µM | OVCAR-3 > 100 µM | ACHN > 100 µM | HCT-116 > 100 µM | OVCAR-4 > 100 µM | UACC-257 > 100 µM | HL-60 > 100 µM | SR > 100 µM | NCI-H23 > 100 µM | SNB-19 > 100 µM | COLO 205 > 100 µM | U-251 > 100 µM | OVCAR-8 > 100 µM

CCNC(=O)OCc1c(COC(=O)NCC)c(-c2ccc(Cl)c(Cl)c2)n2c1CCC2
inactive: IGROV-1 9.31 µM | NCI-H522 6.58 µM | CAKI-1 3.01 µM | OVCAR-3 17.6 µM | ACHN 4.88 µM | HCT-116 9.4 µM | OVCAR-4 15.2 µM | UACC-257 12.2 µM | HL-60 3.24 µM | SR 3.21 µM | NCI-H23 8.05 µM | SNB-19 21.5 µM | COLO 205 24.9 µM | U-251 10.5 µM | OVCAR-8 12.6 µM

Cc1ccc(SCC(CSCCO)OCn2cnc3c2N=C(N)NC32OCCO2)cc1 (stereo not drawn)
inactive: IGROV-1 > 100 µM | NCI-H522 > 100 µM | CAKI-1 > 100 µM | OVCAR-3 > 100 µM | ACHN > 100 µM | HCT-116 > 100 µM | DU-145 > 100 µM | OVCAR-4 > 100 µM | PC-3 > 100 µM | UACC-257 > 100 µM | HL-60 > 100 µM | SR > 100 µM | NCI-H23 > 100 µM | NCI/ADR-RES > 100 µM | SNB-19 > 100 µM | MDA-MB-435 > 100 µM | U-251 > 100 µM | OVCAR-8 > 100 µM

CC(N)Cc1ccc(F)cc1 (stereo not drawn)
inactive: IGROV-1 > 100 µM | NCI-H522 > 100 µM | CAKI-1 > 100 µM | OVCAR-3 > 100 µM | ACHN > 100 µM | HCT-116 > 100 µM | OVCAR-4 > 100 µM | UACC-257 > 100 µM | HL-60 > 100 µM | SR > 100 µM | NCI-H23 > 100 µM | SNB-19 > 100 µM | COLO 205 > 100 µM | U-251 > 100 µM | OVCAR-8 > 100 µM
